One block for each compound: values may come before it.
What was measured:
COV644 cells = experiment: CyQuant proliferation assay; format: cell-based, human; conditions: 5 days
Procedure: (§1) OVCAR-3, COV644, or MCF-7 cells were seeded at 1000 cells/well in 384-well black, clear bottom plates and allowed to adhere overnight at 37°C/5% CO2. The following day, cells were treated with compound in a 10-point dose response, 1:4 dilutions. After 5 days of incubation, CyQuant Direct Proliferation Assay was performed according to the manufacturer's instructions. Data were processed with GraphPad Prism using a four-parameter fit to calculate IC50.

MCF-7 cells = experiment: CyQuant proliferation assay; format: cell-based; conditions: Homo sapiens, MCF7, 120 h, read-out: MCF-7 IC50
Procedure: as §1

kinases tested (n = 468) = experiment: KINOMEscan kinome selectivity; format: binding; conditions: fraction of kinases with <10% of control at 3 μM among 468 kinases tested
[1] = test system: CtIP bandshift and pRPA S4/8; experiment: Western blot of HR signaling after etoposide; format: cell-based; conditions: 1 μM RO-3306 or 10 μM roscovitine, 24 h before 50 μM etoposide 2 h
Procedure: Cells were lysed in PhosphoSafe Lysis Buffer (EDM millipore, Cat#71296) and protein was quantified using the Pierce BCA Gold Kit (Thermo Fisher Scientific Cat#A53227). Lysate and lysis buffer were combined with 4× Loading Dye (Bio-Rad, Cat#1610747) and 2ME (Bio-Rad, Cat#1610710). Samples were loaded into Bio-Rad 4–20% Tris-glycine, 18-well SDS-PAGE (Cat#5671094). Transfer was performed using Bio-Rad dry transfer system (Trans-Blot Turbo) (Nitrocellulose membrane, 0.2 μM). Blocking was performed using LI-COR Odyssey Blocking Buffer (Cat#927–70001). Primary antibodies (CDK2 1:500, p16 1:1000, CCNE1 1:500, pRbT821 1:500, Actin R 1:2000, p21 1:1000, CCNA2 1:500, pRb S807/811 1:1000, pRb S780 1:500, CtIP 1:1000, Actin M 1:5000, pH2A.X Ser139 1:1000, pCDK2 T160 1:1000, pRPA S4/8 1:1000, CDK1 1:1000, pCDK1 Y15 1:1000, pChk1 S317 1:500, Total Chk1 1:1000, Tubulin 1:10 000) were combined with Odyssey Blocking Buffer and 0.1% Tween-20, and incubated at 4°C, rotating. Secondary antibodies were combined with Odyssey Blocking Buffer and 0.1% Tween-20 and incubated at room temperature, rotating. All secondary antibodies were diluted to 1:10 000 (LI-COR Cat#926–33212, Cat#926-33213, Cat#926-68070, Cat#926–68071, Cat#926–68076). Signals were detected using LI-COR Odyssey CLx Imaging Studio.

OVCAR-3 cells [2] = experiment: CyQuant proliferation assay; format: cell-based, human; conditions: 5 days
Procedure: as §1

OVCAR-3 cells [3] = experiment: Proliferative recovery after HU-induced replication fork collapse (IncuCyte confluence); format: cell-based, human; conditions: 500 nM, HU 2 mM 24 h pulse
Procedure: Figure S2. Replication fork stall signaling is dependent on CDK2, HR in CCNE1 - […]
(A) Cyclin E1 protein expression is strongly associated with CCNE1 copy number […]
amplification among TCGA patients with ovarian cancer (n=304) (Welch Two Sample t- […]
test, P = 2.3E-13). (B) Chemical structures of BLU1851. (C) Kinome tree for BLU1851 […]
at 3 µM (S-Score = 0.050). (D) Dose-response curves for BLU1851 enzyme inhibition […]
for indicated CDK family members. Error bars represent SD of at least duplicate independent experiments. (E) NanoBRET assessment of BLU1851 target engagement […]
in indicated CDK complexes expressed in HEK-293 cells. Error bars represent SD of at […]
least duplicate independent experiments. (F) Dose-response curve for pRb T821/826 […]
inhibition by BLU1851 in OVCAR-3 cells. Error bars represent SD of at least duplicate independent experiments. (G) Dose-response curve for pLamin S22 inhibition by BLU1851 in OVCAR-3 and COV644 cells. Error bars represent SD of duplicate independent experiments. (H) Dose-response curves in MCF-7, OVCAR-3 cells. […] (I) Quantification of pCHK1 S317 normalized to […]
allowed to recover in the presence of rabusertib. Confluence was calculated using […]
confluency at experimental endpoint. Confluence was measured by IncuCyte live cell […]
imaging and values were determined using an algorithm to detect cells from phase- […]

[4] = test system: homologous recombination (3X-FLAG ACTB reporter); experiment: CRISPR/Cas9 recombination assay; format: cell-based, human; conditions: 25 or 250 nM BLU1851, 10 μM roscovitine; 72 h
Procedure: pBluescript SK II + and LentiCRISPR v2 plasmids were purchased from Genscript. LentiCRISPR v2 plasmids expressing single guide (sgRNA) against ACTB or scrambled sgRNA were constructed according to the depositor's instructions. To construct HR donor vectors against ACTB, sequences from −1554 to +1527 relative to the stop codon of ACTB plus 3× FLAG directly 5’ from the stop codon were synthesized and cloned into pBluescript SK II using restriction digest and ligation. Compounds were added to cells on the day of plasmid transfection. sgRNA/Cas9 and the donor plasmid were prepared in a 1:2 molar ratio; 1 μg of total DNA/well was transfected onto cells using Lipofectamine 2000 (Thermo Fisher Scientific Cat#11668019). Cells were harvested for Western Blot analysis 72 h later.

Compound: CC(C)CC(=O)c1c(Nc2ccc(Cl)cc2Cl)[nH]c2c(Cl)ccc([N+](=O)[O-])c2c1=O [JH-RE-06]
- sensitivity of COV644 cells compared with OVCAR-3 cells (proliferative IC50) (COV644 cells): more sensitive

Compound: CC(=O)c1c(C)c2cnc(Nc3ccc(N4CCNCC4)cn3)nc2n(C2CCCC2)c1=O [Palbociclib, reference compound]
- IC50 (MCF-7 cells): 150 nM
- Kinome S (10) (kinases tested (n = 468)): 0.041

Compound: O=C1NC(=NCc2cccs2)S/C1=C\c1ccc2ncccc2c1 [RO-3306]
- HR signaling across cell lines tested [1]: only a small effect in some cell lines

- sensitivity of OVCAR-3 cells compared with COV644 cells (proliferative IC50) (OVCAR-3 cells [2]): more sensitive
Compound: N=C1NC(=O)/C(=C/c2ccc(O)cc2)S1 [mirin]

Compound: Cc1cnc(NC(=O)Nc2cc(Br)c(C)cc2OC[C@@H]2CNCCO2)cn1 [rabusertib]
- proliferation following HU treatment (OVCAR-3 cells [3]): suppressed the ability of OVCAR-3 cells to proliferate following HU treatment

Compound: CC[C@H](CO)Nc1nc(NCc2ccccc2)c2ncn(C(C)C)c2n1 [roscovitine]
- recombination (3X-FLAG product) [4]: inhibited recombination in all cell lines
- HR signaling across cell lines tested [1]: suppressed HR signaling in most cell lines tested

Compound: COC1=C(N)C(=O)c2nc(-c3nc(C(=O)O)c(C)c(-c4ccc(OC)c(OC)c4O)c3N)ccc2C1=O [streptonigrin]
- sensitivity of OVCAR-3 cells compared with COV644 cells (proliferative IC50) (OVCAR-3 cells [2]): more sensitive
